Laboratory results published in the supplement of paper PMC11451515.

Tested on: NOMO1
Test: cell viability relative to DMSO control; higher = less cytotoxic
Details: 48 h
Summary of the method: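 Viability values are per-plate percentages of DMSO wells, with background from cell-free wells. Library compounds in DMSO were pin-dosed, in an 11-point threefold series from 47 μM to 0.79 nM, onto NOMO1 or SEM (500 cells/well) or P12-Ichikawa (1000 cells/well) leukemia cells in 1536-well plates (5 μl). Those cells had been adapted for at least four passages in each medium, and CellTiter-Glo One luminescence was read after 48 h at 37°C.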

[1] = HPLM + 10% dialyzed FBS, 0.000781 µM
[2] = HPLM + 10% dialyzed FBS, 0.00234 µM
[3] = HPLM + 10% dialyzed FBS, 0.00702 µM
[4] = HPLM + 10% dialyzed FBS, 0.0211 µM
[5] = HPLM + 10% dialyzed FBS, 0.0632 µM
[6] = HPLM + 10% dialyzed FBS, 0.19 µM
[7] = HPLM + 10% dialyzed FBS, 0.569 µM
[8] = HPLM + 10% dialyzed FBS, 1.71 µM
[9] = HPLM + 10% dialyzed FBS, 5.12 µM
[10] = HPLM + 10% dialyzed FBS, 15.4 µM
[11] = HPLM + 10% dialyzed FBS, 46.1 µM
[12] = RPMI 5 mM glucose + 10% FBS, 0.000781 µM
[13] = RPMI 5 mM glucose + 10% FBS, 0.00234 µM
[14] = RPMI 5 mM glucose + 10% FBS, 0.00702 µM
[15] = RPMI 5 mM glucose + 10% FBS, 0.0211 µM
[16] = RPMI 5 mM glucose + 10% FBS, 0.0632 µM
[17] = RPMI 5 mM glucose + 10% FBS, 0.19 µM
[18] = RPMI 5 mM glucose + 10% FBS, 0.569 µM
[19] = RPMI 5 mM glucose + 10% FBS, 1.71 µM
[20] = RPMI 5 mM glucose + 10% FBS, 5.12 µM
[21] = RPMI 5 mM glucose + 10% FBS, 15.4 µM
[22] = RPMI 5 mM glucose + 10% FBS, 46.1 µM
[23] = RPMI 5 mM glucose + 10% dialyzed FBS, 0.000781 µM
[24] = RPMI 5 mM glucose + 10% dialyzed FBS, 0.00234 µM
[25] = RPMI 5 mM glucose + 10% dialyzed FBS, 0.00702 µM
[26] = RPMI 5 mM glucose + 10% dialyzed FBS, 0.0211 µM
[27] = RPMI 5 mM glucose + 10% dialyzed FBS, 0.0632 µM
[28] = RPMI 5 mM glucose + 10% dialyzed FBS, 0.19 µM
[29] = RPMI 5 mM glucose + 10% dialyzed FBS, 0.569 µM
[30] = RPMI 5 mM glucose + 10% dialyzed FBS, 1.71 µM
[31] = RPMI 5 mM glucose + 10% dialyzed FBS, 5.12 µM
[32] = RPMI 5 mM glucose + 10% dialyzed FBS, 15.4 µM
[33] = RPMI 5 mM glucose + 10% dialyzed FBS, 46.1 µM

Row | Structure (SMILES) | cell viability [1] | cell viability [2] | cell viability [3] | cell viability [4] | cell viability [5] | cell viability [6] | cell viability [7] | cell viability [8] | cell viability [9] | cell viability [10] | cell viability [11] | cell viability [12] | cell viability [13] | cell viability [14] | cell viability [15] | cell viability [16] | cell viability [17] | cell viability [18] | cell viability [19] | cell viability [20] | cell viability [21] | cell viability [22] | cell viability [23] | cell viability [24] | cell viability [25] | cell viability [26] | cell viability [27] | cell viability [28] | cell viability [29] | cell viability [30] | cell viability [31] | cell viability [32] | cell viability [33]
1 | CC(C)[C@H](O)C(=O)N[C@@H](C)C(=O)N[C@@H]1C(=O)N(C)CCc2ccccc21 | 93.5% | 132% | 111% | 113% | 113% | 125% | 109% | 101% | 101% | 92.6% | 76.7% | 98.7% | 119% | 117% | 114% | 117% | 98.5% | 125% | 105% | 108% | 110% | 92.5% | 112% | 109% | 123% | 112% | 110% | 114% | 108% | 108% | 112% | 103% | 97.2%
2 | C[C@H](NC(=O)[C@@H](O)c1cc(F)cc(F)c1)C(=O)N[C@@H]1C(=O)N(C)c2ccccc2-c2ccccc21 | – | – | – | – | – | – | – | – | – | – | – | 103% | 115% | 106% | 122% | 109% | 114% | 104% | 86.6% | 97.7% | 101% | 97.3% | 119% | 116% | 119% | 113% | 113% | 105% | 101% | 113% | 102% | 97.3% | 84.5%
3 | COc1cc2c(cc1O)CCC1C2CC[C@@]2(C)C1CC[C@@H]2O (stereo partly specified) | – | – | – | – | – | – | – | – | – | – | – | 117% | 111% | 103% | 110% | 121% | 120% | 111% | 101% | 84.2% | 25.1% | 32.6% | 118% | 129% | 117% | 116% | 121% | 115% | 119% | 115% | 63.8% | 33.9% | 40.4%
4 | COc1c(N2C[C@@H]3CCCN[C@@H]3C2)c(F)cc2c(=O)c(C(=O)O)cn(C3CC3)c12.Cl.O | 118% | 115% | 103% | 104% | 100% | 87.2% | 82.6% | 101% | 92.4% | 80.5% | 87.5% | 92.2% | 94.1% | 103% | 105% | 113% | 93.8% | 95% | 93.7% | 97.6% | 85.9% | 85.5% | 105% | 98.5% | 108% | 106% | 99.1% | 87.3% | 96% | 98.4% | 87.4% | 86.3% | 85.6%
5 | Cc1noc(N[S+](=O)([O-])c2ccc(N)cc2)c1C | 92.3% | 91.3% | 109% | 97.9% | 95.6% | 101% | 109% | 114% | 96% | 92% | 104% | 98% | 92.7% | 88.6% | 89.5% | 108% | 102% | 113% | 111% | 106% | 91.6% | 104% | 92.3% | 90.7% | 71.5% | 92.6% | 89% | 89.7% | 92.6% | 96.2% | 90.3% | 94.6% | 81.4%
6 | NC(=O)c1nnn(Cc2cc(Cl)c(C(=O)c3ccc(Cl)cc3)c(Cl)c2)c1N | 111% | 134% | 124% | 127% | 120% | 137% | 124% | 135% | 111% | 120% | 78.7% | 121% | 123% | 129% | 124% | 122% | 123% | 123% | 105% | 110% | 114% | 103% | – | – | – | – | – | – | – | – | – | – | –
7 | CC(C)(Sc1cc(C(C)(C)C)c(O)c(C(C)(C)C)c1)Sc1cc(C(C)(C)C)c(O)c(C(C)(C)C)c1 | 88.5% | 92.3% | 85.6% | 105% | 108% | 90.4% | 96.2% | 94.3% | 79.1% | 103% | 91.6% | 84.4% | 92.5% | 86.2% | 91.3% | 86.4% | 98.4% | 92.8% | 84.8% | 92.7% | 93% | 84.8% | 79.7% | 88.3% | 94.6% | 83.7% | 98.9% | 105% | 95.5% | 94.5% | 81.4% | 90.2% | 94%
8 | CN(C)c1ccc(-c2nc3c(N4CCN(CC(=O)Nc5nccs5)CC4)c(Cl)cnc3[nH]2)cc1 | 117% | 130% | 121% | 124% | 113% | 127% | 112% | 102% | 101% | 89.9% | 69.2% | 102% | 99.3% | 98.6% | 94.6% | 101% | 108% | 93.6% | 109% | 103% | 89.9% | 77.7% | 108% | 107% | 103% | 108% | 113% | 106% | 101% | 107% | 98.3% | 94.8% | 70.3%
